Like-named read-outs stand apart in the source and are kept apart here.
Legend:
[1] = tested on: iCell cardiomyocytes (human iPSC-derived cardiomyocytes); assay: High-content imaging of cytotoxicity and mitochondrial integrity in iPSC-CMs; assay type: cell-based; settings: Homo sapiens, Cardiomyocyte; for viability at 0.01 µM / activity at 0.01 µM / viability at 0.1 µM / activity at 0.1 µM / viability at 1 µM / activity at 1 µM / viability at 10 µM / activity at 10 µM / viability at 100 µM / activity at 100 µM: 0.00 µM = 100.00; for viability at 0.1 µM / activity at 0.1 µM: 0.10 µM
Outline: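 Human iPSC-derived cardiomyocytes were seeded on gelatin-coated 384-well plates at 5,000 cells per well and maintained for 12 d. Test chemicals were added as 10μL of 5× solutions to final concentrations of 0.01 to 100μM. Cells were stained with Hoechst 33342 and MitoTracker™ Orange, fixed in formaldehyde, and imaged by confocal high-content microscopy at 10× magnification.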

HUVECs = assay: High-content imaging cytotoxicity in HUVECs, 24 h; assay type: cell-based, human; settings: Homo sapiens, HUVEC, 24 h, HUVECs; for viability at 0.01 µM / activity at 0.01 µM: concentration 0.01 µM; for viability at 0.01 µM / activity at 0.01 µM / viability at 0.1 µM / activity at 0.1 µM / viability at 1 µM / activity at 1 µM / viability at 10 µM / activity at 10 µM / viability at 100 µM / activity at 100 µM: 0.00 µM = 100.00; for viability at 0.1 µM / activity at 0.1 µM: concentration 0.10 µM; for viability at 1 µM / activity at 1 µM: concentration 1.00 µM; for viability at 10 µM / activity at 10 µM: concentration 10.00 µM; for viability at 100 µM / activity at 100 µM: concentration 100.00 µM; for minimal effective concentration: MAX 100.00
Outline: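 Point-of-departure values derive from four-parameter logistic fits of vehicle-normalized imaging phenotypes (Hoechst 33342, MitoTracker Orange, calcein AM). The fits follow 24 h exposure of HUVEC monolayers at 37°C and 5% CO2, with a top tested concentration of 100μM.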

[2] = 1.5 h, 90min, read-out: cm.cam.90min
[3] = 1.5 h, 90min, read-out: cm.mii.90min
[4] = 1.5 h, 90min, read-out: cm.mito.90min
[5] = 1.5 h, 90min, read-out: cm.tc.90min
[6] = 24 h, 24hrs, read-out: cm.cam.24hrs
[7] = 24 h, 24hrs, read-out: cm.mii.24hrs
[8] = 24 h, 24hrs, read-out: cm.mito.24hrs
[9] = 24 h, 24hrs, read-out: cm.tc.24hrs
[10] = 24 hr, read-out: huvec.cyto.24hr
[11] = 24 hr, read-out: huvec.mito.24hr
[12] = 24 hr, read-out: huvec.mitoint.24hr
[13] = 24 hr, read-out: huvec.nma.24hr
[14] = 24 hrs, read-out: huvec.tc.24hrs

Structure (SMILES): Clc1cc(Cl)c(-c2cc(Cl)c(Cl)cc2Cl)cc1Cl [PCB153]
- viability at 0.01 µM [1, 2]: 98.3%
- activity at 0.01 µM [1, 3]: 112%
- activity at 0.01 µM [1, 4]: 98.2%
- viability at 0.01 µM [1, 5]: 98.1%
- viability at 0.1 µM [1, 2]: 96.8%
- activity at 0.1 µM [1, 3]: 109%
- activity at 0.1 µM [1, 4]: 96.6%
- viability at 0.1 µM [1, 5]: 96.6%
- viability at 1 µM [1, 2]: 102%
- activity at 1 µM [1, 3]: 112%
- activity at 1 µM [1, 4]: 102%
- viability at 1 µM [1, 5]: 102%
- viability at 10 µM [1, 2]: 99.4%
- activity at 10 µM [1, 3]: 102%
- activity at 10 µM [1, 4]: 99.5%
- viability at 10 µM [1, 5]: 99.5%
- viability at 100 µM [1, 2]: 1.35%
- activity at 100 µM [1, 3]: 91%
- activity at 100 µM [1, 4]: 1.22%
- viability at 100 µM [1, 5]: 1.5%
- minimal effective concentration ([1]; 1.5 h, 90min, read-out: cm.cam.90min POD): 20.6 µM
- minimal effective concentration ([1]; 1.5 h, 90min, read-out: cm.mii.90min POD): 100 µM
- minimal effective concentration ([1]; 1.5 h, 90min, read-out: cm.mito.90min POD): 19.8 µM
- minimal effective concentration ([1]; 1.5 h, 90min, read-out: cm.tc.90min POD): 23.2 µM
- viability at 0.01 µM [1, 6]: 94.6%
- activity at 0.01 µM [1, 7]: 88.6%
- activity at 0.01 µM [1, 8]: 94.7%
- viability at 0.01 µM [1, 9]: 95.8%
- viability at 0.1 µM [1, 6]: 98.2%
- activity at 0.1 µM [1, 7]: 109%
- activity at 0.1 µM [1, 8]: 99.3%
- viability at 0.1 µM [1, 9]: 98.3%
- viability at 1 µM [1, 6]: 99.7%
- activity at 1 µM [1, 7]: 80.6%
- activity at 1 µM [1, 8]: 100%
- viability at 1 µM [1, 9]: 99.9%
- viability at 10 µM [1, 6]: 96.8%
- activity at 10 µM [1, 7]: 99.6%
- activity at 10 µM [1, 8]: 95.2%
- viability at 10 µM [1, 9]: 96.5%
- viability at 100 µM [1, 6]: 1.91%
- activity at 100 µM [1, 7]: 23.6%
- activity at 100 µM [1, 8]: 0.34%
- viability at 100 µM [1, 9]: 1.92%
- minimal effective concentration ([1]; 24 h, read-out: cm.cam.24hrs POD): 11.6 µM
- minimal effective concentration ([1]; 24 h, read-out: cm.mii.24hrs POD): 39.9 µM
- minimal effective concentration ([1]; 24 h, read-out: cm.mito.24hrs POD): 10.5 µM
- minimal effective concentration ([1]; 24 h, read-out: cm.tc.24hrs POD): 11.1 µM
- viability at 0.01 µM (HUVECs; [10]): 89.7%
- activity at 0.01 µM (HUVECs; [11]): 88.6%
- activity at 0.01 µM (HUVECs; [12]): 89.5%
- activity at 0.01 µM (HUVECs; [13]): 98.4%
- viability at 0.1 µM (HUVECs; [10]): 85%
- activity at 0.1 µM (HUVECs; [11]): 83.8%
- activity at 0.1 µM (HUVECs; [12]): 93%
- activity at 0.1 µM (HUVECs; [13]): 97%
- viability at 1 µM (HUVECs; [10]): 94.2%
- activity at 1 µM (HUVECs; [11]): 93.9%
- activity at 1 µM (HUVECs; [12]): 92.2%
- activity at 1 µM (HUVECs; [13]): 97.3%
- viability at 10 µM (HUVECs; [10]): 66.9%
- activity at 10 µM (HUVECs; [11]): 53.7%
- activity at 10 µM (HUVECs; [12]): 45.8%
- activity at 10 µM (HUVECs; [13]): 66.9%
- viability at 100 µM (HUVECs; [10]): 66.2%
- activity at 100 µM (HUVECs; [11]): 34.5%
- activity at 100 µM (HUVECs; [12]): 13.2%
- activity at 100 µM (HUVECs; [13]): 65.8%
- minimal effective concentration (HUVECs; 24 hr, read-out: huvec.cyto.24hr POD): 0.0171 µM
- minimal effective concentration (HUVECs; 24 hr, read-out: huvec.mito.24hr POD): 0.75 µM
- minimal effective concentration (HUVECs; 24 hr, read-out: huvec.mitoint.24hr POD): 0.83 µM
- minimal effective concentration (HUVECs; 24 hr, read-out: huvec.nma.24hr POD): 1.01 µM
- viability at 0.01 µM (HUVECs; [14]): 89.7%
- viability at 0.1 µM (HUVECs; [14]): 85%
- viability at 1 µM (HUVECs; [14]): 94.2%
- viability at 10 µM (HUVECs; [14]): 67%
- viability at 100 µM (HUVECs; [14]): 66.2%
- minimal effective concentration (HUVECs; 24 hrs, read-out: huvec.tc.24hrs POD): 0.0171 µM

— publication PMC7377239, “Cardiovascular Effects of Polychlorinated Biphenyls and Their Major Metabolites” (Environmental Health Perspectives, 2020)
